Experimental data as given in US20190192697A1, “CHEMICAL PROBES OF LYSYL OXIDASK-LIKE 2 AND USES THEREOF” (PHARMAKEA, INC., priority 2016, published 2019).
Where a name gives a salt, the structure may show the parent alone.

Experiments:
LOXL2 [1] = target: T1, LOXL2 (Homo sapiens, UniProt Q9Y4K0); experiment: Western-based magnetic bead assay for free/unbound LOXL2 in human plasma pre-incubated with compound; type: binding; design: from tissue; host or cells: human plasma (donors / healthy volunteers); settings: 10 mL human plasma, 2 hours at 37° C., capture with FG beads (Compound 1-7)
T1 sequence (Q9Y4K0 26-774): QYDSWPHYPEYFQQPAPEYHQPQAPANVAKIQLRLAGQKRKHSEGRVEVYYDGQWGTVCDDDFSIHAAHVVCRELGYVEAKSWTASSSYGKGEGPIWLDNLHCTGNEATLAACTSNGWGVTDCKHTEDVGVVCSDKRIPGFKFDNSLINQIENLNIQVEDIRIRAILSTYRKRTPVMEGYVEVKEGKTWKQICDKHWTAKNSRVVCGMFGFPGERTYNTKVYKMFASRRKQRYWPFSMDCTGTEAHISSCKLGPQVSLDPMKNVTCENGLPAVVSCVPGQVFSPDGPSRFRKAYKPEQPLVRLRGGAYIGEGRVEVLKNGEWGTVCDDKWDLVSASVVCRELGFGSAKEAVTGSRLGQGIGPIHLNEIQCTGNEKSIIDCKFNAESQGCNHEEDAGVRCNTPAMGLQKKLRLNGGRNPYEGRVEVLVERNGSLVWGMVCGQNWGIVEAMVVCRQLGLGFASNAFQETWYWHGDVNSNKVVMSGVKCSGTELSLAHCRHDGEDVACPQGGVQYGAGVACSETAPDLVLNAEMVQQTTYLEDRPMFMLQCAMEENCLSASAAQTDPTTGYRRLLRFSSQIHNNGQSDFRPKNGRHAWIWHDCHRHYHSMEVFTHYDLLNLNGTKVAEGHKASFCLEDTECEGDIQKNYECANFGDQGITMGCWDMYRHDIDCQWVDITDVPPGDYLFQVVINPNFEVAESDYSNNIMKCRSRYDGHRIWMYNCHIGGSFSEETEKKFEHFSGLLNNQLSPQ
Procedure: Beads are resuspended to 10 mg/mL in Wash Buffer (20 mM Tris pH 8, 0.2% NP-40, 120 mM NaCl) and 1 mg beads (100 μL) are added to 1-10 mL of plasma, serum or other biological fluid containing LOXL2 and incubated at 37° C. for 0.5-2 hours with rotation. Beads are separated from plasma or other matrix using magnetic separation (for example, DynaMag™-15 Magnet) for 10 minutes at room temperature then the plasma/matrix carefully removed. The beads are resuspended in 1 mL Wash Buffer, vortexed and centrifuged at 4500×g for 5 minutes at room temperature to move all beads to the bottom of the tube. Beads are transferred to a 1.5 mL microfuge tube and washed 3 times with Wash Buffer using magnetic separation (for example, DynaMag™-2 Magnet). After the final wash, beads are resuspended in 40 μL of 1× BOLT® LDS Sample Buffer (Thermo Fisher, Waltham, Mass.) containing 1× BOLT® Sample Reducing Agent (Thermo Fisher, Waltham, Mass.) and incubated for 10 minutes at 90° C. Samples are centrifuged at 10,000×g for 1 minute then magnetically separated using a DynaMag™-2 Magnet for 2 minutes. 40 μL of each supernatant is loaded into one well of a 10 well 4-12% Bis-Tris Plus gel (Thermo Fisher, Waltham, Mass.) and the gels run for 45 minutes at 164 volts in 1×MES SDS Running Buffer (Thermo Fisher, Waltham, Mass.). […]

LOXL2 [2] = target: T1, LOXL2; experiment: LOXL2 target engagement in plasma of healthy volunteers after single oral dose (Western-based FG bead assay); type: in vivo; design: from tissue; host or cells: human plasma (donors / healthy volunteers)
Procedure: Beads are resuspended to 10 mg/mL in Wash Buffer (20 mM Tris pH 8, 0.2% NP-40, 120 mM NaCl) and 1 mg beads (100 μL) are added to 1-10 mL of plasma, serum or other biological fluid containing LOXL2 and incubated at 37° C. for 0.5-2 hours with rotation. Beads are separated from plasma or other matrix using magnetic separation (for example, DynaMag™-15 Magnet) for 10 minutes at room temperature then the plasma/matrix carefully removed. The beads are resuspended in 1 mL Wash Buffer, vortexed and centrifuged at 4500×g for 5 minutes at room temperature to move all beads to the bottom of the tube. Beads are transferred to a 1.5 mL microfuge tube and washed 3 times with Wash Buffer using magnetic separation (for example, DynaMag™-2 Magnet). After the final wash, beads are resuspended in 40 μL of 1× BOLT® LDS Sample Buffer (Thermo Fisher, Waltham, Mass.) containing 1× BOLT® Sample Reducing Agent (Thermo Fisher, Waltham, Mass.) and incubated for 10 minutes at 90° C. Samples are centrifuged at 10,000×g for 1 minute then magnetically separated using a DynaMag™-2 Magnet for 2 minutes. 40 μL of each supernatant is loaded into one well of a 10 well 4-12% Bis-Tris Plus gel (Thermo Fisher, Waltham, Mass.) and the gels run for 45 minutes at 164 volts in 1×MES SDS Running Buffer (Thermo Fisher, Waltham, Mass.). Gels are transferred to nitrocellulose using iBlot (Thermo Fisher, Waltham, Mass.) according to the manufacturer's recommendation. Blots are incubated in Bullet Blocking One (Nacalai USA, Inc) for 5 minutes at room temperature then incubated overnight at 4° C. with an anti-LOXL2 antibody (for example, R&D Systems goat polyclonal) diluted in Signal Enhancer Solution 1 (Nacalai USA, Inc). Blots are rinsed quickly twice in PBS/0.1% tween-20 then washed 3 times for 10 minutes each in the PBS/tween solution. A secondary infrared dye (IRdye)-conjugated secondary antibody (LI-COR Biosciences, Lincoln, Neb.) diluted in Signal Enhancer 2 (Nacalai USA, Inc) is added to the blot and incubated for 45 minutes-1 hour at room temperature in the dark. Blots are washed as above with PBS/tween then rinsed in PBS before imaging with a LI-COR Odyssey (LI-COR, Lincoln, Neb.).
Healthy human subjects (male and female) were dosed with compound 2 in solution. […] Placebo data is the average of all the placebo subjects in the single dose study (n=10).

In the case of `NCc1cc(Oc2cccc(C(=O)N3C[C@@H](O)[C@H](F)C3)c2)nc(C(F)(F)F)c1` [Compound 1-13a, (R,R)-trans-(3-((4-(Aminomethyl)-6-(trifluoromethyl)pyridin-2-yl)oxy)phenyl)(3-fluoro-4-hydroxypyrrolidin-1-yl)methanone hydrochloride], the “decrease of free/unbound LOXL2 relative to vehicle control” value (LOXL2 [1]; 1 μM) is reported as “approximately 63%”, the “decrease of free/unbound LOXL2 relative to vehicle control” value (LOXL2 [1]; 10 μM) is reported as ~100% and the “Ave plasma % TE” value (LOXL2 [2]; 150 mg single oral dose, 2 hour post-dose) is reported as 62%. For the same compound, the “average decrease of free/unbound LOXL2 in plasma” value (LOXL2 [2]; 150 mg single oral dose, 2 hours post-dosing, healthy subjects) was “approximately 60%”, the “Ave plasma % TE” value (LOXL2 [2]; 150 mg single oral dose, 24 hour post-dose) was 20% and the “Ave plasma % TE” value (LOXL2 [2]; 450 mg single oral dose, 2 hour post-dose) was 78%. For the same compound, the “Ave plasma % TE” value (LOXL2 [2]; 450 mg single oral dose, 24 hour post-dose) was −13%, the “Ave plasma % TE” value (LOXL2 [2]; 1000 mg single oral dose, 2 hour post-dose) was 92% and the “Ave plasma % TE” value (LOXL2 [2]; 1000 mg single oral dose, 24 hour post-dose) was 1%. The IC50 (LOXL2 [2]; plasma samples of healthy volunteers dosed with compound 1-13a, read-out: IC50 of % target engagement versus plasma concentration) was 0.905 µM.
